The record followed here is PubChem BioAssay AID434951 (Broad Institute, 2010).

Activity calls are given as the source filed them.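 How the source made its calls: active means a fitted half-maximal concentration EC50 for the rise in nuclear signal no higher than ten times the top dose tested; inconclusive means flat fit with activity between 30% and 70%, or unusable fit; inactive means EC50 beyond ten times the top dose.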

Hypoxia-inducible factor 1-alpha (Homo sapiens), sequence (Q16665 whole entry, looked up): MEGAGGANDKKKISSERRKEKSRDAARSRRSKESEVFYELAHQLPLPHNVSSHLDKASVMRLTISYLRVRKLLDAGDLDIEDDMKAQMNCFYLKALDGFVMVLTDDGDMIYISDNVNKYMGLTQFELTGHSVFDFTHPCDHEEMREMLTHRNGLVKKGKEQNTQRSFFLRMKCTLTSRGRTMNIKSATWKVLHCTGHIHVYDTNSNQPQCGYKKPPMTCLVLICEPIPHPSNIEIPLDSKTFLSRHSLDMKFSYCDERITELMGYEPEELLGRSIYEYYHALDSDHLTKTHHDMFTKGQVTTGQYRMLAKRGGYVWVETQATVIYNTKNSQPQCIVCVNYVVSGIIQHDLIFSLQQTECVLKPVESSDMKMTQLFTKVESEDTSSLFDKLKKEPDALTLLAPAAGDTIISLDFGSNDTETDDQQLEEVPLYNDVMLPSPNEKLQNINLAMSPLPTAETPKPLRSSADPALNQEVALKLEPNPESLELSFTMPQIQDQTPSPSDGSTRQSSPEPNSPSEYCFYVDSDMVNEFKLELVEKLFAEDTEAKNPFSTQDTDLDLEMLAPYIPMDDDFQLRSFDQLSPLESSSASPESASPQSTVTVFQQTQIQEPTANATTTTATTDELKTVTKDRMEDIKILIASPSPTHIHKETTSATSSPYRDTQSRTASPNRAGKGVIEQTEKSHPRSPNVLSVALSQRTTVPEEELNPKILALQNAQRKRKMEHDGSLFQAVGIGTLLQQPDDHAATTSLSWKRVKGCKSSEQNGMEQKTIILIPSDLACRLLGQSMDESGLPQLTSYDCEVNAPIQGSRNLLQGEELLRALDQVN

This assay has as its target Hypoxia-inducible factor 1-alpha (Homo sapiens) (UniProt Q16665). Briefly: HIF pathway activation, GFP-HIF1alpha translocation – imaging, fluorescence, U2OS GFP-HIF1alpha, confirmation (AID 434951). As to conditions: U2OS GFP-HIF1alpha nuclear intensity, high-content imaging.
As to `CCN(CC)c1ccc(/C=N/Nc2nc3ccccc3[nH]2)c(O)c1`, the EC50 (in general, the concentration at which the effect is half-maximal) is 6.95 µM.

Regarding `CCc1nc(SCC(=O)c2ccccc2)c2ccccc2n1`, the EC50 was > 35 µM (inactive). As for `Cc1ccc(Oc2ncc(CN3CC(C)OC(C)C3)s2)cc1` (centres undefined), the EC50 was > 35 µM (inactive). Consider `COc1ccc(CC(=O)N2CCN(C(=O)Cc3ccc(OC)cc3)CC2)cc1`, for which the EC50 is > 35 µM (inactive). On to `COc1ccc(C(NC(C)=O)c2ccc3cccnc3c2O)c(OC)c1` (centres undefined), for which the EC50 was 10.9 µM. Consider `CN1CCN(Cc2cc(COCc3ccccc3)c3cccnc3c2O)CC1`, for which the EC50 is 7.82 µM. Regarding `N#CCC(=O)N/N=C/c1ccc(SCC(=O)Nc2ccccc2)o1`, the EC50 is > 35 µM (inactive).

For `COc1nccc(C(F)(F)F)c1C(=O)NC(=O)Nc1ccccc1`, the EC50 is > 35 µM (inactive).

For `COc1ccc(/C=C/C(=O)NCCSCc2ccco2)cc1OC`, the EC50 was > 35 µM (inactive). In the case of `O=C(N/N=C/c1cc2cc3c(cc2nc1Cl)OCO3)c1ccncc1` it was > 35 µM (inactive); in that of `O=[N+]([O-])c1cc(Cl)cc(/C=N\Nc2ccccn2)c1O`, 1.65 µM; in that of `CC1=NC(C#N)=C(C#N)NC(C)(C)C1`, > 35 µM (inactive). In the case of `CCCC(=O)NC(c1ccc(C(C)C)cc1)c1ccc2cccnc2c1O` (centres undefined) it was 2.1 µM; in that of `Cc1cc(/C=N/n2c(COc3ccccc3)nc3ccccc3c2=O)c(O)c([N+](=O)[O-])c1`, 24.5 µM; in that of `CC(=O)c1ccc(C(=O)N2CCCC(Nc3ccc(C(C)C)cc3)C2)s1` (centres undefined), > 35 µM (inactive). In the case of `Cc1ccc(C(=O)Nc2c3c(nn2C(C)(C)C)CS(=O)(=O)C3)cc1C`, the EC50 is > 35 µM (inactive). For `CNc1c2c(nn1C)CCCC2`, the EC50 is > 35 µM (inactive). In the case of `CCN(CC)c1ccc(/C=N/NC(=O)c2ccoc2C)c(O)c1` it was 10.9 µM; in that of `CNc1nc(-c2ccccn2)nnc1-c1ccccc1`, 7.4 µM. `CCOc1ccc(/C=C/C(=O)c2ccccc2)cc1OC`: the EC50 was 19.7 µM. Consider `CCc1ccc(C2C(=O)c3ccccc3C2=O)cc1`, for which the EC50 was > 35 µM (inactive). In the case of `COc1ccc(/C=N/NC(=S)Nc2cc(S(=O)(=O)N3CCOCC3)ccc2N2CCOCC2)cc1O` it was > 35 µM (inactive). On to `CC(=O)c1cccc(NC(=O)CSC(=O)c2ccccc2)c1`, for which the EC50 is > 35 µM (inactive). In the case of `CCOc1ccccc1NC(=O)COc1ccc2c(c1)OCO2` it was > 35 µM (inactive). In the case of `COc1ccc(NC(=O)Nc2ccc(Br)cn2)cc1` it was > 35 µM (inactive); in that of `Oc1c(C(Nc2cccc(C(F)(F)F)c2)c2ccncc2)ccc2cccnc12` (centres undefined), 6.49 µM; in that of `CCN(CC)S(=O)(=O)c1ccc(N/N=C(\C)c2ccc(OC)cc2O)nc1`, 7.86 µM.

Take `N/C(=N\OC(=O)Cc1cccs1)c1ccccc1`: the EC50 is > 35 µM (inactive). Regarding `O=C(N/N=C\c1cc(Br)ccc1O)c1ccc(S(=O)(=O)N2CCCCC2)cc1`, the EC50 is 6.74 µM. For `CC(C)C(=O)N1CCN(c2ccc(NC(=O)COc3ccccc3[N+](=O)[O-])cc2)CC1`, the EC50 is > 35 µM (inactive).

For `O=C(c1ccc(F)cc1)N(Cc1cccs1)C1CCS(=O)(=O)C1` (centres undefined), the EC50 was > 35 µM (inactive). With `CCCCn1c(/C=N/Nc2nc3ccccc3[nH]2)nc2ccccc21`, the EC50 is 7.81 µM. On to `NS(=O)(=O)c1ccc(NC(=O)c2ccc(CSc3ccccc3)o2)cc1`, for which the EC50 was > 35 µM (inactive). In the case of `O=C(c1ccc(OC2CCN(Cc3ccc(F)cc3)CC2)cc1)N1CCCC1` it was > 35 µM (inactive); in that of `Oc1c(N=Nc2ccccn2)ccc2ccccc12`, 3.98 µM. Turning to `Oc1c(CN2CCN(c3ccc(F)cc3)CC2)cc(Cl)c2cccnc12`, the EC50 was 6.07 µM. As for `O=C(/C=C/c1cn(-c2ccccc2)nc1-c1ccccc1)Nc1ccc(C(=O)O)cc1`, the figure is > 35 µM (inactive). As for `CC(=O)NC(c1ccc(C)cc1)c1cc(Cl)c2cccnc2c1O` (centres undefined), the figure is 16.6 µM; as for `COc1ccc2c(c1)c(C(=O)CN1CCc3ccccc3C1)c(C)n2C`, > 35 µM (inactive).

Regarding `O=C(N/N=C/c1cc(Br)ccc1O)c1ccncc1`, the EC50 was > 35 µM (inactive). As for `CCOc1ccc2c(c1)c1nnc(SCC3CCCO3)nc1n2C` (centres undefined), the figure is > 35 µM (inactive); as for `CCOC(=O)c1c(S(=O)(=O)N2CCCC2)c(C)n(C)c1C`, > 35 µM (inactive).

`COc1ccc2nc(NC(=O)c3cccs3)sc2c1`: the EC50 was > 35 µM (inactive). In the case of `CCCCCCn1nc(C(=O)Nc2nc3c(s2)CCCC3)c2ccccc2c1=O`, the EC50 was > 35 µM (inactive).

In the case of `CCCNC(=O)c1cc2nc(-c3ccccc3)cc(C(F)(F)F)n2n1`, the EC50 is > 35 µM (inactive). As for `CCOc1ccc(-c2c(C(=O)N/N=C/c3cccnc3)nnn2-c2nonc2N)cc1`, the figure is > 35 µM (inactive); as for `COc1ccc(CCNC(=O)c2nnn(CC(=O)Nc3c(C)cc(C)cc3C)c2N)cc1OC`, > 35 µM (inactive); as for `Cc1ccc(C2=NS(=O)(=O)N(C)C(C(=O)NC3CCCC3)=C2)cc1`, > 35 µM (inactive). In the case of `C=C(C)CNC(=O)c1ccc2nc(Cc3ccc(OC)cc3)oc2c1`, the EC50 is > 35 µM (inactive). In the case of `CC(C)(C)c1cc(C(=O)N2CCN(c3ncccn3)CC2)ccn1` it was > 35 µM (inactive). `O=C(Nc1nc2c(F)cc(F)cc2s1)c1ccccn1`: the EC50 was 5.5 µM. As for `Cc1cc(OC(C)C(=O)NNC(=O)Nc2ccc(F)cc2F)cc(C)c1Cl` (centres undefined), the figure is > 35 µM (inactive).

On to `CCCCc1ccc(NC(=O)C2CCN(S(C)(=O)=O)CC2)cc1`, for which the EC50 was > 35 µM (inactive). As for `CCN(Cc1ccccc1)C(=O)CCNS(=O)(=O)c1ccc2c(c1)CC(C)N2C(C)=O` (centres undefined), the figure is > 35 µM (inactive). Take `Cc1nc(C)c(C(=O)N/N=C/c2cc(Br)ccc2O)s1`: the EC50 is 7.18 µM.

For `COc1cc2ncnc(NCc3cccs3)c2cc1OC`, the EC50 was > 35 µM (inactive). Regarding `COc1ccc(C(CC(=O)Nc2ccccc2OC)n2cccc2)cc1` (centres undefined), the EC50 was > 35 µM (inactive). Consider `CC(C)C(=O)NC(c1ccco1)c1ccc2cccnc2c1O` (centres undefined), for which the half-maximal effective concentration (EC50) was 4.47 µM. `COc1cnc(-c2ccccn2)nc1N(C)C`: the EC50 is 5.92 µM. For the compound `CC(C)C(=O)NC(c1ccc(Cl)cc1Cl)c1ccc2cccnc2c1O` (centres undefined), the concentration giving a half-maximal response (EC50) is 4.88 µM.

As for `Cc1ccc(NC2CCCN(C(=O)C3CCCCC3)C2)cc1C` (centres undefined), the EC50 was > 35 µM (inactive).

In the case of `O=C(COc1cccc2ccccc12)Nc1ccc(Cl)cc1C(=O)O`, the EC50 was > 35 µM (inactive).

On to `Cc1ccc(-c2cc(C(=O)Nc3cccnc3)[nH]n2)c(O)c1C`, for which the EC50 is > 35 µM (inactive). In the case of `CC(=O)Nc1ccc(NC(=O)CCC(=O)OCC(=O)c2ccc(F)cc2)cc1` it was > 35 µM (inactive). In the case of `COCCn1c(-c2ccc(OC)cc2)cnc1SCC(=O)Nc1ccc(OC)cc1OC` it was > 35 µM (inactive); in that of `CS(=O)(=O)n1nc(-c2ccccc2)nc1NCc1ccco1`, > 35 µM (inactive).

Take `Cc1ccccc1Nc1c(-c2ccccn2)nc2ccccn12`: the EC50 was 8.61 µM. As for `COc1ccccc1-c1cc(C(F)(F)F)nc(S(C)(=O)=O)n1`, the figure is 18 µM; as for `O=C(CCCCCCC(=O)Nc1ccccc1)NO`, 5.94 µM; as for `O=C(N/N=C/c1ccccn1)c1ccc(Cl)cc1`, 12.8 µM. In the case of `CC(=O)Nc1nc(C)c(-c2csc(Nc3ccccn3)n2)s1` it was > 35 µM (inactive); in that of `Cc1cccc(NC(=O)Cc2noc3ccccc23)c1`, > 35 µM (inactive). As for `O=C(CSc1ncn[nH]1)NCCc1ccc(Cl)cc1Cl`, the figure is > 35 µM (inactive); as for `O=C1CC(Nc2ccccc2)C(=O)N1Cc1ccccc1` (centres undefined), > 35 µM (inactive). Turning to `Cc1ncc(CO)c(/C=N/Nc2ccc(C(F)(F)F)cn2)c1O`, the EC50 was 17.8 µM.

As for `Cc1ccc(CSc2nnc(CCCCCNC(=O)OC(C)(C)C)o2)cc1`, the EC50 is > 35 µM (inactive).

For the compound `CCOc1ccc(CCNC(=O)COC(=O)Cn2nc(C)c([N+](=O)[O-])c2C)cc1OCC`, the EC50 is > 35 µM (inactive).

With `CC(C)=CCSc1nnc([C@@H](N)Cc2c[nH]c3ccccc23)o1`, the EC50 is > 35 µM (inactive). Turning to `CCOc1cccc(/C=N/Nc2ccc(S(=O)(=O)N(CC)CC)cn2)c1O`, the concentration giving a half-maximal response (EC50) was 3.59 µM. In the case of `COc1ccc(OC)c(CNC(=O)C2CCCN(S(=O)(=O)N3CCC(C)CC3)C2)c1` (centres undefined) it was > 35 µM (inactive).

On to `O=C(Nc1nc(NC(=O)c2ccco2)n(-c2ccccc2)n1)c1ccccc1`, for which the EC50 is 13.1 µM.

With `Oc1c(C(Nc2ccccn2)c2ccccn2)ccc2cccnc12` (centres undefined), the EC50 was 3.98 µM. In the case of `O=C(CSc1ccc(-c2ccccn2)nn1)Nc1nccs1` it was 10.6 µM; in that of `O=C(N/N=C/c1sc2ccccc2c1O)c1cccc2ccccc12`, 31.4 µM. In the case of `Cn1cc(CC(=O)N2CCN(c3ccc(Cl)cc3)CC2)c2ccccc21` it was > 35 µM (inactive); in that of `Cc1nnsc1C(=O)N/N=C/c1ccc2ccccc2c1O`, 3.13 µM; in that of `COc1ccc(CCNC(=O)COC(=O)CCC(=O)c2ccc(F)cc2)cc1OC`, > 35 µM (inactive). As for `CCOC(=O)/C(C#N)=C/C=C1\C=Cc2ccccc2N1CC`, the figure is > 35 µM (inactive); as for `COc1ccc(C(CC(=O)NCc2ccccc2)Sc2n[nH]c(-c3ccccc3)n2)cc1` (centres undefined), 33 µM.

Regarding `Cc1ccc(N2CC(=O)Nc3c(sc4nc(C)cc(C)c34)C2=O)cc1`, the EC50 was > 35 µM (inactive). Turning to `COc1cc(C(=O)N2CCN(C(=O)Cc3ccccc3)CC2)cc(OC)c1OC`, the EC50 is > 35 µM (inactive). In the case of `COc1ccc(NC(=O)C2CCN(S(=O)(=O)c3ccc4c(c3)CC(C)N4C(C)=O)CC2)cc1OC` (centres undefined) it was > 35 µM (inactive); in that of `O=C(CCCOc1ccc(Cl)cc1Cl)N/N=C/c1ccccc1O`, 7.41 µM; in that of `Oc1c(C(Nc2nc3ccccc3s2)c2ccco2)ccc2cccnc12` (centres undefined), 7.1 µM.
